Tests used:
Type in all cases: functional
Settings in all cases: read-out: DIZ
Pseudomonas aeruginosa = assay: Antibacterial activity against Pseudomonas aeruginosa MTCC441 at 5 ug/ml
Escherichia coli = assay: Antibacterial activity against Escherichia coli MTCC442 at 5 ug/ml
Aspergillus fumigatus = assay: Antifungal activity against Aspergillus fumigatus HIC6094 at 5 ug/ml
Candida albicans = assay: Antifungal activity against Candida albicans MTCC227 at 5 ug/ml
Streptococcus pneumoniae = assay: Antibacterial activity against Streptococcus pneumoniae ATCC49619 at 5 ug/ml
Bacillus subtilis = assay: Antibacterial activity against Bacillis subtilis BS-GA28 at 5 ug/ml
[1] = test system: Syncephalastrum racemosum; assay: Antifungal activity against Syncephalastrum racemosum RCMB05922 at 5 ug/ml
Geotrichum candidum = assay: Antifungal activity against Geotrichum candidum RCMB05097 at 5 ug/ml

| Compound | zone of inhibition at 5 µg/mL (Pseudomonas aeruginosa) [mm] | zone of inhibition at 5 µg/mL (Escherichia coli) [mm] | zone of inhibition at 5 µg/mL (Aspergillus fumigatus) [mm] | zone of inhibition at 5 µg/mL (Candida albicans) [mm] | zone of inhibition at 5 µg/mL (Streptococcus pneumoniae) [mm] | zone of inhibition at 5 µg/mL (Bacillus subtilis) [mm] | zone of inhibition at 5 µg/mL [1] [mm] | zone of inhibition at 5 µg/mL (Geotrichum candidum) [mm] |
| --- | --- | --- | --- | --- | --- | --- | --- | --- |
| CCOC(=O)c1c(Nc2ccccc2)sc(-c2ccnc(S)n2)c1-c1ccccc1 | 9.8 | 11.3 | 15.7 | 12.7 | 12.3 | 12.7 | 16.6 | 12.6 |
| CCOC(=O)c1c(Nc2ccccc2)sc(-c2ccn(-c3ccc(Cl)cc3)n2)c1-c1ccccc1 | 10.8 | 11.1 | 26.3 | 11.2 | 18.2 | 18.9 | 20.9 | 12.6 |
| CCOC(=O)c1ccc(-c2sc(Nc3ccccc3)c(C(=O)OCC)c2-c2ccccc2)nc1C | 10.8 | 11.1 | 26.3 | 11.2 | 18.2 | 18.9 | 20.9 | 12.6 |
| CCOC(=O)c1c(Nc2ccccc2)sc(C(=O)/C=C/c2ccc([N+](=O)[O-])cc2[N+](=O)[O-])c1-c1ccccc1 | 11.3 | 9.9 | 18.9 | 13.4 | 16.5 | 18.9 | 19.6 | 14.8 |
| CCOC(=O)c1c(Nc2ccccc2)sc(C(=O)/C=C/c2ccc(O)cc2)c1-c1ccccc1 | 18.7 | 19.5 | 15.7 | 13.3 | 26.7 | 21.4 | 11.2 | 17.3 |
| CCOC(=O)c1c(Nc2ccccc2)sc(-c2ccn(-c3ccccc3)n2)c1-c1ccccc1 | 11.6 | 10.9 | 15.9 | 15.8 | 12.3 | 12.7 | 18.9 | 19.1 |
| CCOC(=O)c1c(Nc2ccccc2)sc(C(=O)/C=C/c2ccc(Cl)cc2)c1-c1ccccc1 | 12.3 | 17.6 | 22.3 | 12.3 | 19.5 | 29.8 | 16.5 | 25.8 |
| CCOC(=O)c1c(Nc2ccccc2)sc(C(=O)c2cn(-c3ccc(Cl)cc3)nc2C(C)=O)c1-c1ccccc1 | 10.2 | 8.8 | 16.3 | 14.3 | 14.6 | 14.3 | 14.8 | 15.3 |
| CCOC(=O)c1c(Nc2ccccc2)sc(C(=O)/C=C\Nc2ccc([N+](=O)[O-])cc2)c1-c1ccccc1 | 12.3 | 18.8 | 12.6 | 10.9 | 19.5 | 29.8 | 16.5 | 25.8 |
| CCOC(=O)c1c(Nc2ccccc2)sc(C(=O)/C=C/c2cccc(N(C)C)c2)c1-c1ccccc1 | 12.5 | 14.8 | 24.3 | 14.3 | 16.3 | 19.6 | 24.5 | 25.8 |
| CCOC(=O)c1c(Nc2ccccc2)sc(-c2ccnc(O)n2)c1-c1ccccc1 | 11.4 | 10.7 | 18.2 | 18.2 | 16.3 | 19.1 | 13.7 | 19.1 |
| CCOC(=O)c1c(Nc2ccccc2)sc(C(=O)/C=C/c2ccc(OC)cc2)c1-c1ccccc1 | 11.4 | 10.2 | 23.4 | 11.9 | 18.9 | 17.9 | 16.1 | 10.8 |
| CCOC(=O)c1c(Nc2ccccc2)sc(C(=O)c2cn(-c3ccc(C)cc3)nc2C(C)=O)c1-c1ccccc1 | 9.8 | 11.3 | 15.7 | 12.7 | 12.3 | 12.7 | 16.6 | 12.6 |
| CCOC(=O)c1c(Nc2ccccc2)sc(C(=O)/C=C/c2ccc(Cl)c(Cl)c2)c1-c1ccccc1 | 9.7 | 8.9 | 17.7 | 13.2 | 11.3 | 10.7 | 15.4 | 12.9 |
| CCOC(=O)c1c(Nc2ccccc2)sc(-c2ccnc(N)n2)c1-c1ccccc1 | 11.4 | 10.7 | 18.2 | 18.2 | 16.3 | 19.1 | 13.7 | 19.1 |
| C[C@@H]1[C@H](O)[C@@H](C)/C=C/C=C/C=C/C=C/C=C/C=C/C=C/[C@H](O[C@@H]2O[C@H](C)[C@@H](O)[C@H](N)[C@@H]2O)C[C@@H]2O[C@](O)(C[C@@H](O)C[C@@H](O)[C@H](O)CC[C@@H](O)C[C@@H](O)CC(=O)O[C@H]1C)C[C@H](O)[C@H]2C(=O)O [AMPHOTERICIN B] | – | – | 23.7 | 25.4 | – | – | 19.7 | 28.7 |
| CC1(C)S[C@@H]2[C@H](NC(=O)[C@H](N)c3ccccc3)C(=O)N2[C@H]1C(=O)O [AMPICILLIN] | – | – | – | – | 23.8 | 32.4 | – | – |
